Source: US7598382B2, “Aryl substituted imidazoquinolines” (Coley Pharmaceutical Group, Inc., priority 2002, dated 2009)

Compound	melting point
CCOCc1nc2c(N)nc3cc(-c4cncc(CO)c4)ccc3c2n1CC1CCCCC1 [Example 439, 1-Cyclohexylmethyl-2-ethoxymethyl-7-(5-hydroxymethylpyridin-3-yl)-1H-imidazo[4,5-c]quinolin-4-amine]	240 to 241 °C
CCCc1nc2c(N)nc3cc(/C=C/c4cccc(S(N)(=O)=O)c4)ccc3c2n1CC(C)C [Example 440, (E)-3-{2-[4-Amino-1-(2-methylpropyl)-2-propyl-1H-imidazo[4,5-c]quinolin-7-yl]vinyl}benzenesulfonamide]	> 250 °C
CCCc1nc2c(N)nc3cc(/C=C/c4ccc5sc(C)nc5c4)ccc3c2n1CC(C)C [Example 441, (E)-7-[2-(2-Methylbenzothiazol-5-yl)vinyl]-1-(2-methylpropyl)-2-propyl-1H-imidazo[4,5-c]quinolin-4-amine]	210 to 212 °C
CCCc1nc2c(N)nc3cc(/C=C/c4ccc(C)s4)ccc3c2n1CC(C)C [Example 442, (E)-1-(2-Methylpropyl)-7-[2-(5-methylthiophen-2-yl)vinyl]-2-propyl-1H-imidazo[4,5-c]quinolin-4-amine]	182 to 185 °C
CCCc1nc2c(N)nc3cc(/C=C/c4cccc(OC)c4)ccc3c2n1CC(C)C [Example 443, (E)-7-[2-(3-Methoxyphenyl)vinyl]-1-(2-methylpropyl)-2-propyl-1H-imidazo[4,5-c]quinolin-4-amine]	181 to 183 °C
CCCc1nc2c(N)nc3cc(/C=C/c4ccc(OC)cc4)ccc3c2n1CC(C)C [Example 444, (E)-7-[2-(4-Methoxyphenyl)vinyl]-1-(2-methylpropyl)-2-propyl-1H-imidazo[4,5-c]quinolin-4-amine]	201 to 202 °C
CCCc1nc2c(N)nc3cc(/C=C/c4ccccc4OC)ccc3c2n1CC(C)C [Example 445, (E)-7-[2-(2-Methoxyphenyl)vinyl]-1-(2-methylpropyl)-2-propyl-1H-imidazo[4,5-c]quinolin-4-amine]	214 to 216 °C
CCCc1nc2c(N)nc3cc(CCc4cccc(S(N)(=O)=O)c4)ccc3c2n1CC(C)C [Example 456, 3-{2-[4-Amino-1-(2-methylpropyl)-2-propyl-1H-imidazo[4,5-c]quinolin-7-yl]ethyl}benzenesulfonamide]	250 to 251 °C
CCCc1nc2c(N)nc3cc(CCc4cccc(OC)c4)ccc3c2n1CC(C)C [Example 458, 7-[2-(3-Methoxyphenyl)ethyl]-1-(2-methylpropyl)-2-propyl-1H-imidazo[4,5-c]quinolin-4-amine]	155 to 157 °C
CCCc1nc2c(N)nc3cc(CCc4ccc(C)s4)ccc3c2n1CC(C)C [Example 461, 1-(2-Methylpropyl)-7-[2-(5-methylthiophen-2-yl)ethyl]-2-propyl-1H-imidazo[4,5-c]quinolin-4-amine]	150 to 152 °C
CCOCc1nc2c(N)nc3cc(-n4cccn4)ccc3c2n1CCCOC [Example 472, 2-Ethloxymethyl-1-(3-methoxypropyl)-7-(pyrazol-1-yl)-1H-imidazo[4,5-c]quinolin-4-amine]	159 to 160 °C

Continued, values first:

melting point	Compound
167.5 to 169 °C	CCOCc1nc2c(N)nc3cc(-n4ccnc4)ccc3c2n1CCCOC [Example 473, 2-Ethoxymethyl-7-(imidazol-1-yl)-1-(3-methoxypropyl)-1H-imidazo[4,5-c]quinolin-4-amine]
325 to 328 °C	CCOCc1nc2c(N)nc3cc(-c4ccc(-c5ccc6c(c5)nc(N)c5nc(COCC)n(CC(C)(C)O)c56)cc4)ccc3c2n1CC(C)(C)O [Example 474, 1-(4-Amino-7-{4-[4-amino-2-ethoxymethyl-1-(2-hydroxy-2-methylpropyl)-1H-imidazo[4,5-c]quinolin-7-yl]phenyl}-2-ethoxymethyl-1H-imidazo[4,5-c]quinolin-1-yl)-2-methylpropan-2-ol]
261 to 265 °C	CCCCCCC1(CCCCCC)c2cc(-c3ccc4c(c3)nc(N)c3nc(COCC)n(CC(C)(C)O)c34)ccc2-c2ccc(-c3ccc4c(c3)nc(N)c3nc(COCC)n(CC(C)(C)O)c34)cc21 [Example 475, 1-(4-Amino-7-{7-[4-amino-2-ethoxymethyl-1-(2-hydroxy-2-methylpropyl)-1H-imidazo[4,5-c]quinolin-7-yl]-9,9-dihexyl-9H-fluoren-2-yl}-2-ethoxymethyl-1H-imidazo[4,5-c]quinolin-1-yl)-2-methylpropan-2-ol]
251 to 254 °C	CCCCCCC1(CCCCCC)c2cc(-c3ccc4c(c3)nc(N)c3nc(CCOC)n(CCCN5CCCC5=O)c34)ccc2-c2ccc(-c3ccc4c(c3)nc(N)c3nc(CCOC)n(CCCN5CCCC5=O)c34)cc21 [Example 476, 1-[4-Amino-7-(7-{4-amino-2-(2-methoxyethyl)-1-[3-(pyrrolidin-2-one)propyl]-1H-imidazo[[4,5-c]quinolin-7-yl}-9,9-dihexyl-9H-fluoren-2-yl)-2-(2-methoxyethyl)-1H-imidazo[4,5-c]quinolin-1-yl]propyl}pyrrolidin-2-one]
254 to 255 °C	CCOCc1nc2c(N)nc3cc(-c4cccc(CS(N)(=O)=O)c4)ccc3c2n1CC1CCOCC1 [Example 480, {3-[4-Amino-2-ethoxymethyl-1-(tetrahydropyran-4-ylmethyl)-1H-imidazo[4,5-c]quinolin-7-yl]phenyl}methanesulfonamide]
263 to 265 °C	CC(C)Cn1cnc2c(N)nc3cccc(-c4ccccc4)c3c21 [Example 482, 1-(2-Methylpropyl)-9-phenyl-1H-imidazo[4,5-c]quinolin-4-amine]
181 to 182 °C	CCCOc1ccc(-c2cccc3nc(N)c4ncn(CC(C)C)c4c23)cc1 [Example 483, 1-(2-Methylpropyl)-9-(4-propoxyphenyl)-1H-imidazo[4,5-c]quinolin-4-amine]
234 to 235 °C	CCOCc1nc2c(N)nc3c(-c4cccc(CS(N)(=O)=O)c4)cccc3c2n1CC(C)(C)O [Example 484, {3-[4-Amino-2-ethoxymethyl-1-(2-hydroxy-2-methylpropyl)-1H-imidazo[4,5-c]quinolin-6-yl]phenyl}methanesulfonamide]
199 to 201 °C	CCOCc1nc2c(N)nc3c(-c4cccnc4)cccc3c2n1CC(C)(C)O [Example 485, 1-[4-Amino-2-ethoxymethyl-6-(pyridin-3-yl)-1H-imidazo[4,5-c]quinolin-1-yl]-2-methylpropan-2-ol]
164 to 166 °C	CCOCc1nc2c(N)nc3c(-c4cccc(C(=O)N5CCOCC5)c4)cccc3c2n1CC(C)(C)O [Example 486, {3-[4-Amino-2-ethoxymethyl-1-(2-hydroxy-2-methylpropyl)-1H-imidazo[4,5-c]quinolin-6-yl]phenyl}morpholin-4-ylmethanone]
155 to 156 °C	CCOCc1nc2c(N)nc3cc(-c4cccnc4)ccc3c2n1C[C@@H]1COC(C)(C)O1 [Example 487, (R)-1-[(2,2-Dimethyl-1,3-dioxolan-4-yl)methyl]-2-ethoxymethyl-7-(pyridin-3-yl)-1H-imidazo[4,5-c]quinolin-4-amine]
202 to 204 °C	CCOCc1nc2c(N)nc3cc(-c4cccnc4)ccc3c2n1C[C@@H](O)CO [Example 488, (R)-3-[4-Amino-2-ethoxymethyl-7-(pyridin-3-yl)-1H-imidazo[4,5-c]quinolin-1-yl]propane-1,2-diol]
157 to 158 °C	CCOCc1nc2c(N)nc3cc(-c4cccnc4)ccc3c2n1C[C@H]1COC(C)(C)O1 [Example 489, (S)-1-[(2,2-Dimethyl-1,3-dioxolan-4-yl)methyl]-2-ethoxymethyl-7-(pyridin-3-yl)-1H-imidazo[4,5-c]quinolin-4-amine]
203 to 204 °C	CCOCc1nc2c(N)nc3cc(-c4cccnc4)ccc3c2n1C[C@H](O)CO [Example 490, (S)-3-[4-Amino-2-ethoxymethyl-7-(pyridin-3-yl)-1H-imidazo[4,5-c]quinolin-1-yl]propane-1,2-diol]
152 to 154 °C	CCOCc1nc2c(N)nc3cc(-c4cccnc4)ccc3c2n1CC1CCCCN1S(C)(=O)=O (stereo not shown) [Example 492, 2-Ethoxymethyl-1-{[1-(methanesulfonyl)piperidin-2-yl]methyl}-7-(pyridin-3-yl)-1H-imidazo[4,5-c]quinolin-4-amine]
228 to 229 °C	CCOCc1nc2c(N)nc3cc(-c4cccnc4)ccc3c2n1Cc1ccc(CNS(C)(=O)=O)cc1 [Example 493, N-{4-[4-Amino-2-ethoxymethyl-7-(pyridin-3-yl)-1H-imidazo[4,5-c]quinolin-1-ylmethyl]benzyl}methanesulfonamide]
157 to 161 °C	CCOCc1nc2c(N)nc3cc(-c4cccnc4)ccc3c2n1CCCCNC(=O)c1ccc(C(OCCN(C)C)c2ccccc2)cc1 (stereo not shown) [Example 494, N-[4-(4-Amino-2-ethoxymethyl-7-(pyridin-3-yl)imidazo[4,5-c]quinolin-1-yl)butyl]-4-[(2-dimethylaminoethoxy)phenylmethyl]benzamide]
